Counter-ions that a name gives are not always drawn.
Target: PDE10A (Homo sapiens (Human), UniProt Q9Y233)
Test: Measurement of PDE activity (recombinant PDE, cAMP HTRF)
Assay type: biochemical
Conditions: 20 nM cyclic nucleotide substrate, 60 minutes at 29 C
Description: a) Measurement of PDE Activity
The recombinant PDE proteins are used in in vitro enzymatic reaction for measurement of PDE activity. These recombinant proteins, including PDE10A (human, rat and mouse PDE10) and isoforms of PDEs 1, 3, 4, and 5, were purchased from commercial vendor BPS Bioscience. The enzymatic activity of PDEs was determined by cAMP measurement kit from CisBio (IBA) using HTRF technology.
The PDE enzymatic reaction was carried out in assay buffer (20 mM Tris-HCl pH7.5, 10 mM MgCl2, 0.1% bovine serum albumin) containing enzyme and substrate. […] The substrate cyclic nucleotide (cAMP or cGMP) concentration used in the assay was 20 nM for PDE10, and 100 nM for other PDEs. The inhibitory effect of compound was determined by incubating various concentration of inhibitor in the enzymatic assay. […] Next, the compound at varying concentration was mixed with PDE enzyme. The reaction was initiated by addition of cyclic nucleotide substrate, and incubated for 60 minutes at 29 C. The reaction was stopped by addition of lysis buffer from assay kit. The cAMP-d2 and anti-cAMP cryptate in the lysis buffer detected the level of cAMP left from the PDE hydrolysis reaction. […] Thus, IC50 value of inhibitor can be obtained by plotting inhibitor concentration against PDE activity at that concentration.

Sequence of PDE10A (Q9Y233 whole entry, species assumed): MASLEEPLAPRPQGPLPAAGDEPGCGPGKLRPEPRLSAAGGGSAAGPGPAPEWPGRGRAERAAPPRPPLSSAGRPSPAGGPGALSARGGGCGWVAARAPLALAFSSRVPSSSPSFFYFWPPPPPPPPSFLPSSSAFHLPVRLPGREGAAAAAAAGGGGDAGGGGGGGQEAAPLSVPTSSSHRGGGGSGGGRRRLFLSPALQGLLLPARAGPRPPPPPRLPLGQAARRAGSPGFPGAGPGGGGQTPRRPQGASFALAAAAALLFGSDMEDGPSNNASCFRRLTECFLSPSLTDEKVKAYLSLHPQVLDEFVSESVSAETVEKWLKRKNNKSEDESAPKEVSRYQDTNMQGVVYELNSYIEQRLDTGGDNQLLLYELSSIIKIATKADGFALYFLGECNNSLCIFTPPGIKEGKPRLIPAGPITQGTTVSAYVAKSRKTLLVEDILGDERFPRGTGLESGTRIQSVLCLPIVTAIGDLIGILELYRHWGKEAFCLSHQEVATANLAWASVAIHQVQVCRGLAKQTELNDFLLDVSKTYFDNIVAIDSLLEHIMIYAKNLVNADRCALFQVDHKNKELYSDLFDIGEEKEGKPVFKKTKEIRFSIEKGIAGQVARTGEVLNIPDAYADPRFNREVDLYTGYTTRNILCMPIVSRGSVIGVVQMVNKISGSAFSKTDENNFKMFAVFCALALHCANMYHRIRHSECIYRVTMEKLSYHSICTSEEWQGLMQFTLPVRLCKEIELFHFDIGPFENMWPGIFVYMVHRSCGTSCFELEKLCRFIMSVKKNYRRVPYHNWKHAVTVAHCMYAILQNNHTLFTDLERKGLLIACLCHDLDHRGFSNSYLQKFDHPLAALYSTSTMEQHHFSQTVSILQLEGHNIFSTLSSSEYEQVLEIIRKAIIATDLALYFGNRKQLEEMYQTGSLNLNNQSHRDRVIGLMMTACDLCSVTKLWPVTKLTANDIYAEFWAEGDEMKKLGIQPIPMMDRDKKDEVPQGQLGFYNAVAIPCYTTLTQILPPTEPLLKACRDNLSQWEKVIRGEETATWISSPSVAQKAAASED

Row | SMILES | IC50 [µM]
1 | CCC(CC)n1cc(C(=O)NCc2ccoc2C)c2cc(OC)c(OC)cc2c1=O [Example 268, 6,7-Dimethoxy-N-((2-methylfuran-3-yl)methyl)-1-oxo-2-(pentan-3-yl)-1,2-dihydroisoquinoline-4-carboxamide] | 0.2 to 0.5
2 | CCn1cc(C(=O)NCc2cccc(F)c2)c2cc(OC)c(OC)cc2c1=O [Example 31, 2-Ethyl-6,7-dimethoxy-1-oxo-1,2-dihydro-isoquinoline-4-carboxylic acid 3-fluoro-benzylamide] | 0.2 to 0.5
3 | CCn1cc(C(=O)NCc2ccc(C)cc2OC(C)(C)C)c2cc(OC)c(OC)cc2c1=O [Example 276, N-[(2-tert-Butoxy-4-methyl-phenyl)methyl]-2-ethyl-6,7-dimethoxy-1-oxo-isoquinoline-4-carboxamide] | 0.2 to 0.5
4 | CCCCNC(=O)c1cn(CCc2ccc3ccccc3n2)c(=O)c2cc(OC)c(OC)cc12 [Example 322, N-Butyl-6,7-dimethoxy-1-oxo-2-[2-(2-quinolyl)ethyl]isoquinoline-4-carboxamide; 2,2,2-trifluoroacetic acid] | < 0.1
5 | CCn1cc(C(=O)Nc2ccccc2)c2cc(OC)c(OC)cc2c1=O [Example 151, 2-Ethyl-6,7-dimethoxy-1-oxo-N-phenyl-1,2-dihydroisoquinoline-4-carboxamide] | 0.2 to 0.5
6 | COc1cc2c(C(=O)NC3CCc4ccccc43)cn(CCc3ccc4ccccc4n3)c(=O)c2cc1OC (stereo not drawn) [Example 323, N-Indan-1-yl-6,7-dimethoxy-1-oxo-2-[2-(2-quinolyl)ethyl]isoquinoline-4-carboxamide; 2,2,2-trifluoroacetic acid] | 0.2 to 0.5
7 | CCn1cc(C(=O)NC(C)CC(C)C)c2cc(OC)c(OC)cc2c1=O (stereo not drawn) [Example 23, 2-Ethyl-6,7-dimethoxy-1-oxo-1,2-dihydro-isoquinoline-4-carboxylic acid (1,3-dimethyl-butyl)-amide] | 0.2 to 0.5
8 | CCn1cc(C(=O)NCc2ccc(C)cc2OCC2CCCO2)c2cc(OC)c(OC)cc2c1=O (stereo not drawn) [Example 305, 2-Ethyl-6,7-dimethoxy-N-(4-methyl-2-((tetrahydrofuran-2-yl)methoxy)benzyl)-1-oxo-1,2-dihydroisoquinoline-4-carboxamide] | 0.2 to 0.5
9 | CCn1cc(C(=O)Nc2ccc(F)cc2)c2cc(OC)c(OC)cc2c1=O [Example 156, 2-Ethyl-N-(4-fluorophenyl)-6,7-dimethoxy-1-oxo-1,2-dihydroisoquinoline-4-carboxamide] | 0.2 to 0.5
10 | CCn1cc(C(=O)NC2CCc3ccc(OC)cc32)c2cc(OC)c(OC)cc2c1=O (stereo not drawn) [Example 176, 2-Ethyl-6,7-dimethoxy-N-(6-methoxy-2,3-dihydro-1H-inden-1-yl)-1-oxo-1,2-dihydroisoquinoline-4-carboxamide] | 0.2 to 0.5
11 | CCC(CC)n1cc(C(=O)NCc2cc(C)sc2C)c2cc(OC)c(OC)cc2c1=O [Example 242, N-((2,5-dimethylthiophen-3-yl)methyl)-6,7-dimethoxy-1-oxo-2-(pentan-3-yl)-1,2-dihydroisoquinoline-4-carboxamide] | 0.2 to 0.5
12 | CCn1cc(C(=O)NCc2ccc(C)cc2OC)c2cc(OC)c(OC)cc2c1=O [Example 308, 2-Ethyl-6,7-dimethoxy-N-(2-methoxy-4-methylbenzyl)-1-oxo-1,2-dihydroisoquinoline-4-carboxamide] | 0.2 to 0.5
13 | CCn1cc(C(=O)NC2CCc3cc(C)ccc32)c2cc(OC)c(OC)cc2c1=O (stereo not drawn) [Example 175, 2-Ethyl-6,7-dimethoxy-N-(5-methyl-2,3-dihydro-1H-inden-1-yl)-1-oxo-1,2-dihydroisoquinoline-4-carboxamide] | 0.2 to 0.5
14 | CCn1cc(C(=O)NCc2ccc(C)c(F)c2F)c2cc(OC)c(OC)cc2c1=O [Example 278, N-[(2,3-Difluoro-4-methyl-phenyl)methyl]-2-ethyl-6,7-dimethoxy-1-oxo-isoquinoline-4-carboxamide] | 0.2 to 0.5
15 | CCC(CC)n1cc(C(=O)NC2CCc3c(Cl)cccc32)c2cc(OC)c(OC)cc2c1=O (stereo not drawn) [Example 265, N-(4-Chloro-2,3-dihydro-1H-inden-1-yl)-6,7-dimethoxy-1-oxo-2-(pentan-3-yl)-1,2-dihydroisoquinoline-4-carboxamide] | 0.2 to 0.5
16 | CCC(CC)n1cc(C(=O)NC2CCc3ccc(C)cc32)c2cc(OC)c(OC)cc2c1=O (stereo not drawn) [Example 260, 6,7-Dimethoxy-N-(6-methyl-2,3-dihydro-1H-inden-1-yl)-1-oxo-2-(pentan-3-yl)-1,2-dihydroisoquinoline-4-carboxamide] | 0.1 to 0.2
17 | CCn1cc(C(=O)NCc2ccccn2)c2cc(OC)c(OC)cc2c1=O [Example 149, 2-Ethyl-6,7-dimethoxy-1-oxo-N-(pyridin-2-ylmethyl)-1,2-dihydroisoquinoline-4-carboxamide] | 0.2 to 0.5

Row | SMILES | IC50 [µM]
18 | CCC(CC)n1cc(C(=O)NCc2ncc(C)o2)c2cc(OC)c(OC)cc2c1=O [Example 259, 6,7-Dimethoxy-N-((5-methyloxazol-2-yl)methyl)-1-oxo-2-(pentan-3-yl)-1,2-dihydroisoquinoline-4-carboxamide] | 0.2 to 0.5
19 | CCc1nc(CNC(=O)c2cn(C(CC)CC)c(=O)c3cc(OC)c(OC)cc23)cs1 [Example 255, N-((2-Ethylthiazol-4-yl)methyl)-6,7-dimethoxy-1-oxo-2-(pentan-3-yl)-1,2-dihydroisoquinoline-4-carboxamide] | 0.2 to 0.5
20 | CCn1cc(C(=O)NCc2cccc(F)c2F)c2cc(OC)c(OC)cc2c1=O [Example 33, 2-Ethyl-6,7-dimethoxy-1-oxo-1,2-dihydro-isoquinoline-4-carboxylic acid 2,3-difluoro-benzylamide] | 0.2 to 0.5
21 | CCC(CC)n1cc(C(=O)NCc2ccn(C)n2)c2cc(OC)c(OC)cc2c1=O [Example 269, 6,7-Dimethoxy-N-((1-methyl-1H-pyrazol-3-yl)methyl)-1-oxo-2-(pentan-3-yl)-1,2-dihydroisoquinoline-4-carboxamide] | 0.2 to 0.5
22 | CCn1cc(C(=O)NCc2ccc(C)cc2F)c2cc(OC)c(OC)cc2c1=O [Example 273, 2-Ethyl-N-[(2-fluoro-4-methyl-phenyl)methyl]-6,7-dimethoxy-1-oxo-isoquinoline-4-carboxamide] | 0.2 to 0.5
23 | CCn1cc(C(=O)NCc2ccc(C)cc2OC(C)(C)CC)c2cc(OC)c(OC)cc2c1=O [Example 277, N-[[2-(1,1-Dimethylpropoxy)-4-methyl-phenyl]methyl]-2-ethyl-6,7-dimethoxy-1-oxo-isoquinoline-4-carboxamide] | 0.2 to 0.5
24 | CCn1cc(C(=O)NCc2ccc(C)cc2OC2CCOC2)c2cc(OC)c(OC)cc2c1=O (stereo not drawn) [Example 303, 2-Ethyl-6,7-dimethoxy-N-(4-methyl-2-(tetrahydrofuran-3-yloxy)benzyl)-1-oxo-1,2-dihydroisoquinoline-4-carboxamide] | 0.2 to 0.5
25 | CCCC(C)NC(=O)c1cn(CC)c(=O)c2cc(OC)c(OC)cc12 (stereo not drawn) [Example 15, 2-Ethyl-6,7-dimethoxy-1-oxo-1,2-dihydro-isoquinoline-4-carboxylic acid (1-methyl-butyl)-amide] | 0.2 to 0.5
26 | CCn1cc(C(=O)NCc2ccc(C)cc2OCCOC)c2cc(OC)c(OC)cc2c1=O [Example 293, 2-Ethyl-6,7-dimethoxy-N-[[2-(2-methoxyethoxy)-4-methyl-phenyl]methyl]-1-oxo-isoquinoline-4-carboxamide] | 0.2 to 0.5
27 | CCC(CC)n1cc(C(=O)NCc2ccccc2CN(C)C)c2cc(OC)c(OC)cc2c1=O [Example 187, 2-(1-Ethyl-propyl)-6,7-dimethoxy-1-oxo-1,2-dihydro-isoquinoline-4-carboxylic acid 2-dimethylaminomethyl-benzylamide hydrochloride] | 0.2 to 0.5
28 | CCn1cc(C(=O)NC2CCc3ccc(C)cc32)c2cc(OC)c(OC)cc2c1=O (stereo not drawn) [Example 167, 2-Ethyl-6,7-dimethoxy-N-(6-methyl-2,3-dihydro-1H-inden-1-yl)-1-oxo-1,2-dihydroisoquinoline-4-carboxamide] | 0.2 to 0.5
29 | CCC(CC)n1cc(C(=O)NC2CCc3cc(C)ccc32)c2cc(OC)c(OC)cc2c1=O (stereo not drawn) [Example 253, 6,7-Dimethoxy-N-(5-methyl-2,3-dihydro-1H-inden-1-yl)-1-oxo-2-(pentan-3-yl)-1,2-dihydroisoquinoline-4-carboxamide] | < 0.1
30 | CCn1cc(C(=O)NCc2ccc(C)cc2OCC(F)(F)F)c2cc(OC)c(OC)cc2c1=O [Example 288, 2-Ethyl-6,7-dimethoxy-N-[[4-methyl-2-(2,2,2-trifluoroethoxy)phenyl]methyl]-1-oxo-isoquinoline-4-carboxamide] | 0.2 to 0.5
31 | CCn1cc(C(=O)NC(C)c2ccccc2)c2cc(OC)c(OC)cc2c1=O (stereo not drawn) [Example 29, 2-Ethyl-6,7-dimethoxy-1-oxo-1,2-dihydro-isoquinoline-4-carboxylic acid (1-phenyl-ethyl)-amide] | 0.2 to 0.5
32 | CCC(CC)n1cc(C(=O)NC2CCc3ccccc32)c2cc(OC)c(OC)cc2c1=O (stereo not drawn) [Example 135, 2-(1-Ethyl-propyl)-6,7-dimethoxy-1-oxo-1,2-dihydro-isoquinoline-4-carboxylic acid indan-1-ylamide] | < 0.1
33 | CCC(CC)n1cc(C(=O)NCc2ccc(F)c(F)c2)c2cc(OC)c(OC)cc2c1=O [Example 189, 2-(1-Ethyl-propyl)-6,7-dimethoxy-1-oxo-1,2-dihydro-isoquinoline-4-carboxylic acid 3,4-difluoro-benzylamide] | 0.1 to 0.2

Reference: patent publication US9856220B2 (AbbVie Deutschland GmbH & Co. KG, priority 2011, dated 2018)
